# Measurements reported in ChEMBL document CHEMBL5325488, “Discovery of SMD-3040 as a Potent and Selective SMARCA2 PROTAC Degrader with Strong in vivo Antitumor Activity” (J Med Chem, 2023).
# The source made the active and inactive calls. No cut-off for these calls is given here.
# Tests used:
# [1] = biological target: T1, von Hippel-Lindau disease tumor suppressor/SWI/SNF-related matrix-associated actin-dependent regulator of chromatin subfamily A member 2 (Homo sapiens, UniProt P51531+P40337); assay: In vivo PROTAC activity at VHL/SMARCA2 in SCID mouse xenografted with human MV4-11 cells assessed as reduction of SMARCA2 level in tumor at 50 mg/kg, iv administered as single dose measured after 72 hrs by Western blotting analysis; type: ADME, organism-based; design: scale not given: the % may be the effect or the level left
# Target sequence in this assay (P51531 whole entry): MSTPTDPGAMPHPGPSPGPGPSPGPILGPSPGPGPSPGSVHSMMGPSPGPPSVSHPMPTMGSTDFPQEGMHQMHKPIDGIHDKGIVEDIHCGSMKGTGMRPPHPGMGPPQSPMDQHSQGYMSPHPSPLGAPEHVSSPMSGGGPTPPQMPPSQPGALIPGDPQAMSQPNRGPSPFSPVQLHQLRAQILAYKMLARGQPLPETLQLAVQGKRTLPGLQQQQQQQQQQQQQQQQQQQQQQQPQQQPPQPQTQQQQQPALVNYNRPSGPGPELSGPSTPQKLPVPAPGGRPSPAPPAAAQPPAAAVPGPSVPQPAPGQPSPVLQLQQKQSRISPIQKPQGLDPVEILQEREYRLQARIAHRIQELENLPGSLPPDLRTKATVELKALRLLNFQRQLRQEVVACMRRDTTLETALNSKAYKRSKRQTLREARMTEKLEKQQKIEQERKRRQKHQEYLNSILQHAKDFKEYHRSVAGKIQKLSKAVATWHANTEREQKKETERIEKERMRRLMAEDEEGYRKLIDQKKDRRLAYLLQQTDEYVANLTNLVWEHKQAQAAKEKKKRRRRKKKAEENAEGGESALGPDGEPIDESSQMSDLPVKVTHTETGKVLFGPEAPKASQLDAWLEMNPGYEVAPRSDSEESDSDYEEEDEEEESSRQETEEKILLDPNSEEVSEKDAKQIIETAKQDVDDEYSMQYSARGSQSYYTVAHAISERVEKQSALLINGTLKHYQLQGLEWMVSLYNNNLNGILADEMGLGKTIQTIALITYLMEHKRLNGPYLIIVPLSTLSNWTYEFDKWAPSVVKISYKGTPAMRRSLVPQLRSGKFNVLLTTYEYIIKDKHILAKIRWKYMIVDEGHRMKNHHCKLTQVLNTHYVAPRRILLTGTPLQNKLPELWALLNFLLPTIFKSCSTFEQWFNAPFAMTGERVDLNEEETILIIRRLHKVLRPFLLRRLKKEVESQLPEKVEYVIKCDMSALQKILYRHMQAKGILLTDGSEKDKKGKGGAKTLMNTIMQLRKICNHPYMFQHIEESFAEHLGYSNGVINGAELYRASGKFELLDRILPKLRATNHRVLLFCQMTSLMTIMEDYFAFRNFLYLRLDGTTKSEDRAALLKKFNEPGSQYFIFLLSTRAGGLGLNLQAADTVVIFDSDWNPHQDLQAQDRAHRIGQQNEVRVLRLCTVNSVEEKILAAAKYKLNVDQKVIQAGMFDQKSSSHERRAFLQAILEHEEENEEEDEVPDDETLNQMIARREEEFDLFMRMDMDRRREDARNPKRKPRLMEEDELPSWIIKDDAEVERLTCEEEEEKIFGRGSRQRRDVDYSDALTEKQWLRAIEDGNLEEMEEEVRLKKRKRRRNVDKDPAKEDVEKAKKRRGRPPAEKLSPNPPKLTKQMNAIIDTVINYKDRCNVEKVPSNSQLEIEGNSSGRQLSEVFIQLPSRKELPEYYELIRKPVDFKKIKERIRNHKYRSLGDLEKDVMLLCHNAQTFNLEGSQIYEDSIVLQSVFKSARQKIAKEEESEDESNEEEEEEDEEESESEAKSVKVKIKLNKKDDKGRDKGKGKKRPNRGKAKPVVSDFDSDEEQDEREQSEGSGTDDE
# Target sequence in this assay (P40337 whole entry): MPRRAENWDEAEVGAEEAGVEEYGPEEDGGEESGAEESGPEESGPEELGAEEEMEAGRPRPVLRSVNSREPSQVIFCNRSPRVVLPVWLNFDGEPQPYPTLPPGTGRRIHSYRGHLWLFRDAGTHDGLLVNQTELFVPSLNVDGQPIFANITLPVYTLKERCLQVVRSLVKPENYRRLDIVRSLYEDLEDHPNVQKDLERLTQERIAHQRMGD
# [2] = biological target: T1, von Hippel-Lindau disease tumor suppressor/SWI/SNF-related matrix-associated actin-dependent regulator of chromatin subfamily A member 2; assay: In vivo PROTAC activity at VHL/SMARCA2 in SCID mouse xenografted with human NCI-H838 cells assessed as remaining activity in tumor at 50 mg/kg, iv administered as single dose measured after 48 hrs by Western blotting analysis (reference value: 100 +/- 7% ); type: functional, organism-based
# Target sequence in this assay (P40337 whole entry, looked up): as the sequence (P40337 whole entry) above
# Target sequence in this assay (P51531 whole entry, looked up): as the sequence (P51531 whole entry) above
# NCI-H1693 [3] = assay: Antiproliferative activity against SMARCA4-deficient human NCI-H1693 cells assessed as cell growth inhibition by measuring maximal efficacy measured after 7 days by WST-8 assay relative to control; type: functional; conditions: time 7 day
# [4] = biological target: T1, von Hippel-Lindau disease tumor suppressor/SWI/SNF-related matrix-associated actin-dependent regulator of chromatin subfamily A member 2; assay: In vivo PROTAC activity at VHL/SMARCA2 in SCID mouse xenografted with human MV4-11 cells assessed as reduction of SMARCA2 level in tumor at 50 mg/kg, iv administered as single dose measured after 96 hrs by Western blotting analysis; type: ADME, organism-based; design: scale not given: the % may be the effect or the level left
# Target sequence in this assay (P51531 whole entry): as above
# Target sequence in this assay (P40337 whole entry): as the sequence (P40337 whole entry) above
# SK-MEL-5 = assay: Antiproliferative activity against SMARCA4-deficient human SK-MEL-5 cells assessed as cell growth inhibition by measuring maximal efficacy measured after 7 days by WST-8 assay relative to control; type: functional; conditions: time 7 day
# [5] = biological target: T1, von Hippel-Lindau disease tumor suppressor/SWI/SNF-related matrix-associated actin-dependent regulator of chromatin subfamily A member 2; assay: In vivo PROTAC activity at VHL/SMARCA2 in SCID mouse xenografted with human MV4-11 cells assessed as reduction of SMARCA2 level in tumor at 50 mg/kg, iv administered as single dose measured after 48 hrs by Western blotting analysis; type: ADME, organism-based; design: scale not given: the % may be the effect or the level left
# Target sequence in this assay (P51531 whole entry): as the sequence (P51531 whole entry) above
# Target sequence in this assay (P40337 whole entry): as the sequence (P40337 whole entry) above
# NCI-H1693 [6] = assay: Antiproliferative activity against SMARCA4-deficient human NCI-H1693 cells assessed as cell growth inhibition measured after 7 days by WST-8 assay; type: functional; conditions: NCI-H1693, 168 h, time 7 day
# [7] = biological target: T2, von Hippel-Lindau disease tumor suppressor/SWI/SNF-related matrix-associated actin-dependent regulator of chromatin subfamily A member 4 (Homo sapiens, UniProt P51532+P40337); assay: In vivo PROTAC activity at VHL/SMARCA4 in SCID mouse xenografted with human MV4-11 cells assessed as remaining activity in tumor at 50 mg/kg, iv administered as single dose measured after 24 hrs by Western blotting analysis (reference value: 100 +/- 15 % ); type: ADME, organism-based
# [8] = Drug concentration in SCID mouse plasma xenografted with human MV4-11 cells at 50 mg/kg, iv measured after 2 hrs by LC-MS/MS method; type: ADME, organism-based
# NCI-H1792 = assay: Antiproliferative activity against human NCI-H1792 cells expressing wild-type SMARCA2 assessed as cell growth inhibition by measuring maximal efficacy measured after 7 days by WST-8 assay relative to control; type: functional; conditions: time 7 day
# [9] = biological target: T1, von Hippel-Lindau disease tumor suppressor/SWI/SNF-related matrix-associated actin-dependent regulator of chromatin subfamily A member 2; assay: PROTAC activity at VHL/C-terminal HiBiT fused SMARCA2 in human HeLa cells assessed as induction of SMARCA2 degradation pre-treated with (2S,4R)-1-((S)-2-acetamido-3,3-dimethylbutanoyl)-4-hydroxy-N-((S)-1-(4-(4-methylthiazol-5-yl)phenyl)ethyl)pyrrolidine-2-carboxamide for 2 hrs followed by compound treatment for 24 hrs by Nano-Glo HiBiT analysis; type: cell-based
# Target sequence in this assay (P40337 whole entry, looked up): as the sequence (P40337 whole entry) above
# Target sequence in this assay (P51531 whole entry, looked up): as the sequence (P51531 whole entry) above
# [10] = biological target: T1, von Hippel-Lindau disease tumor suppressor/SWI/SNF-related matrix-associated actin-dependent regulator of chromatin subfamily A member 2; assay: PROTAC activity at VHL/C-terminal HiBiT fused SMARCA2 in human HeLa cells assessed as induction of SMARCA2 degradation pre-treated with 2-(6-amino-5-(1-methyl-1H-pyrazol-4-yl)pyridazin-3-yl)phenol for 2 hrs followed by compound treatment for 24 hrs by Nano-Glo HiBiT analysis; type: cell-based
# Target sequence in this assay (P40337 whole entry, looked up): as the sequence (P40337 whole entry) above
# Target sequence in this assay (P51531 whole entry, looked up): as the sequence (P51531 whole entry) above
# [11] = biological target: T2, von Hippel-Lindau disease tumor suppressor/SWI/SNF-related matrix-associated actin-dependent regulator of chromatin subfamily A member 4; assay: PROTAC activity at VHL/C-terminal HiBiT fused SMARCA4 in human HeLa cells assessed as induction of SMARCA4 degradation at 0.001 to 10 uM by Nano-Glo HiBiT analysis; type: cell-based; conditions: dose 0.001-10 µM, time 1-48 hrs, TDE = time-dependent effect
# [12] = biological target: T1, von Hippel-Lindau disease tumor suppressor/SWI/SNF-related matrix-associated actin-dependent regulator of chromatin subfamily A member 2; assay: PROTAC activity at VHL/C-terminal HiBiT fused SMARCA2 in human HeLa cells assessed as induction of SMARCA2 degradation pre-treated with MLN4924 for 2 hrs followed by compound treatment for 24 hrs by Nano-Glo HiBiT analysis; type: cell-based
# Target sequence in this assay (P40337 whole entry, looked up): as the sequence (P40337 whole entry) above
# Target sequence in this assay (P51531 whole entry, looked up): as the sequence (P51531 whole entry) above
# [13] = biological target: T2, von Hippel-Lindau disease tumor suppressor/SWI/SNF-related matrix-associated actin-dependent regulator of chromatin subfamily A member 4; assay: PROTAC activity at VHL/C-terminal HiBiT fused SMARCA4 in human HeLa cells assessed as induction of SMARCA4 degradation incubated for 1 hr by Nano-Glo HiBiT analysis; type: cell-based
# [14] = biological target: T1, von Hippel-Lindau disease tumor suppressor/SWI/SNF-related matrix-associated actin-dependent regulator of chromatin subfamily A member 2; assay: PROTAC activity at VHL/C-terminal HiBiT fused SMARCA2 in human HeLa cells assessed as induction of SMARCA2 degradation incubated for 1 to 48 hrs by Nano-Glo HiBiT analysis; type: cell-based; conditions: dose 0.001-10 µM, time 1-48 hrs
# Target sequence in this assay (P40337 whole entry, looked up): as the sequence (P40337 whole entry) above
# Target sequence in this assay (P51531 whole entry, looked up): as the sequence (P51531 whole entry) above
# [15] = biological target: T2, von Hippel-Lindau disease tumor suppressor/SWI/SNF-related matrix-associated actin-dependent regulator of chromatin subfamily A member 4; assay: PROTAC activity at VHL/C-terminal HiBiT fused SMARCA4 in human HeLa cells assessed as induction of SMARCA4 degradation by measuring maximal efficacy at 0.001 to 10 uM incubated for 1 hr by Nano-Glo HiBiT analysis relative to control; type: cell-based; conditions: dose 0.001-10 µM
# [16] = biological target: T2, von Hippel-Lindau disease tumor suppressor/SWI/SNF-related matrix-associated actin-dependent regulator of chromatin subfamily A member 4; assay: In vivo PROTAC activity at VHL/SMARCA4 in SCID mouse xenografted with human MV4-11 cells assessed as remaining activity in tumor at 50 mg/kg, iv administered as single dose measured after 2 hrs by Western blotting analysis (reference value: 100 +/- 15 % ); type: ADME, organism-based
# [17] = biological target: T2, von Hippel-Lindau disease tumor suppressor/SWI/SNF-related matrix-associated actin-dependent regulator of chromatin subfamily A member 4; assay: In vivo PROTAC activity at VHL/SMARCA4 in SCID mouse xenografted with human MV4-11 cells assessed as remaining activity in tumor at 50 mg/kg, iv administered as single dose measured after 96 hrs by Western blotting analysis (reference value: 100 +/- 15 % ); type: ADME, organism-based
# [18] = Drug concentration in SCID mouse tumor xenografted with human MV4-11 cells at 50 mg/kg, iv measured after 6 hrs by LC-MS/MS method; type: ADME, organism-based, Neoplasm; conditions: read-out: Ct
# [19] = biological target: T1, von Hippel-Lindau disease tumor suppressor/SWI/SNF-related matrix-associated actin-dependent regulator of chromatin subfamily A member 2; assay: PROTAC activity at VHL/C-terminal HiBiT fused SMARCA2 in human HeLa cells assessed as induction of SMARCA2 degradation pre-treated with PR171 for 2 hrs followed by compound treatment for 24 hrs by Nano-Glo HiBiT analysis; type: cell-based
# Target sequence in this assay (P40337 whole entry, looked up): as the sequence (P40337 whole entry) above
# Target sequence in this assay (P51531 whole entry, looked up): as the sequence (P51531 whole entry) above
# [20] = Drug concentration in SCID mouse plasma xenografted with human MV4-11 cells at 50 mg/kg, iv measured after 96 hrs by LC-MS/MS method; type: ADME, organism-based
# [21] = Drug concentration in SCID mouse tumor xenografted with human MV4-11 cells at 50 mg/kg, iv measured after 72 hrs by LC-MS/MS method; type: ADME, organism-based, Neoplasm; conditions: read-out: Ct
# A549 = assay: Antiproliferative activity against SMARCA4-deficient human A549 cells assessed as cell growth inhibition by measuring maximal efficacy measured after 7 days by WST-8 assay relative to control; type: functional; conditions: time 7 day
# [22] = Drug concentration in SCID mouse plasma xenografted with human MV4-11 cells at 50 mg/kg, iv measured after 48 hrs by LC-MS/MS method; type: ADME, organism-based
# [23] = Toxicity in SCID mouse xenografted with human SK-MEL-5 cells assessed as effect on change in body weight at 50 mg/kg, iv administered twice a week measured after 3 weeks; type: organism-based; conditions: in vivo, 504 h
smiles,measurement,setting,value
Cc1ncsc1-c1ccc([C@H](C)NC(=O)[C@@H]2C[C@@H](O)CN2C(=O)[C@@H](NC(=O)[C@H]2CC[C@H](CN3CC4(CCC(n5cc(-c6cc(-c7ccccc7O)nnc6N)cn5)CC4)C3)CC2)C(C)(C)C)cc1,Activity,[1],56%
same,Activity,[2],25%
same,Imax,NCI-H1693 [3],79%
same,Activity,[4],74%
same,Imax,SK-MEL-5,95%
same,Activity,[5],83%
same,GI50,NCI-H1693 [6],15 nM
same,Activity,[7],71%
same,concentration at 2 h,[8],2730 ng/mL
same,Imax,NCI-H1792,25%
same,Activity,[9],inactive
same,Activity,[10],inactive
same,Activity,[11],Tde
same,Activity,[12],inactive
same,DC50,[13],> 3.3 µM
same,Activity,[14],Dose-Dependent Effect
same,Emax,[15],20%
same,Activity,[16],93%
same,Activity,[17],84%
same,concentration at 6 h,[18],1100 ng/g
same,Activity,[19],inactive
same,concentration at 96 h,[20],19.6 ng/mL
same,concentration at 72 h,[21],370 ng/g
same,Imax,A549,51%
same,concentration at 48 h,[22],60.5 ng/mL
same,Activity,[23],Non-Toxic
